The numbers were not newly measured in publication PMC10011554, “BET inhibitor trotabresib in heavily pretreated patients with solid tumors and diffuse large B-cell lymphomas” (Nature Communications, 2023), which cites them from elsewhere.

The subject of one data set is CYP2D6. Also noted: method as in Investigator's Brochure. The conditions noted are these: CYP2D6, ref Investigator's Brochure; read-out: IC50, direct inhibition; cited from earlier work.
For data set [1], the system named is FOSL1 gene expression in U-87 glioblastoma cells. Details: method as in Investigator's Brochure. The conditions noted are these: U-87 cells, ref Investigator's Brochure; read-out: IC50, inhibition of FOSL1 gene expression; cited from earlier work.
Details of data set [2]: method as in Investigator's Brochure. The conditions noted are these: rats, IV, non-radiolabeled, ref Investigator's Brochure; cited from earlier work.
The subject of a further data set is FARAGE (GCB DLBCL). Details: method as in Report CC-90010-Pharm-1018. The settings on record: read-out: absolute IC50, proliferation, cited from earlier work.
Data set [3] concerns bacterial reverse mutation. Details: method as in Investigator's Brochure. The settings on record: non-GLP, ref Investigator's Brochure; cited from earlier work.
Data set [4] concerns CYP1A2, CYP2B6 and CYP3A4 mRNA. Details: method as in Investigator's Brochure. The conditions noted are these: 0.01 to 10 µM, up to 3 days, CYP1A2, CYP2B6, CYP3A4, ref Investigator's Brochure; cited from earlier work.
Another data set has as its system P-gp. Details: method as in Investigator's Brochure. The conditions noted are these: ref Investigator's Brochure, read-out: IC50, transporter inhibition; cited from earlier work.
Another data set relates to WSU-DLCL2 (DOX-R). Details: method as in Report CC-90010-Pharm-1018. The conditions noted are these: Table 2, ref Report CC-90010-Pharm-1018, read-out: absolute IC50, proliferation; cited from earlier work.
Data set [5] has as its system TNBR3 TNBC PDX-derived model. Also noted: method as in Investigator's Brochure. The conditions noted are these: TNBR3, ref Investigator's Brochure; read-out: IC50, colony formation; cited from earlier work.
Another data set has as its system OCI-LY-19 (GCB DLBCL). Also noted: method as in Report CC-90010-Pharm-1018. The settings on record: OCI-LY-19, Experiment 1, ref Report CC-90010-Pharm-1018; read-out: absolute IC50, proliferation; cited from earlier work.
Details of data set [6]: method as in PMID 32240793. The settings on record: part A preliminary results; cited from earlier work.
A further data set concerns U-2932 (ABC DLBCL). Also noted: method as in Report CC-90010-Pharm-1018. The conditions noted are these: read-out: absolute IC50, proliferation, cited from earlier work.
The subject of data set [7] is 14 PDX-derived GBM tumor models. Details: method as in Investigator's Brochure. The conditions noted are these: ref Investigator's Brochure, cited from earlier work.
For data set [8], the system named is CYP1A2, CYP2A6, CYP2B6, CYP2C8, CYP2C9, CYP2C19, CYP2D6, CYP2E1, and CYP3A4/5. Also noted: method as in Investigator's Brochure. The conditions noted are these: all nine isozymes tested, ref Investigator's Brochure; cited from earlier work.

Read-outs that look alike come from different tables or passages of the source.

`Cn1cc(-c2cc(S(C)(=O)=O)ccc2OCC2CC2)c2ccccc2c1=O` [trotabresib]: the IC50 in the data set on CYP2D6 is at least 13900 nM; in data set [1] it was 30 nM; in the data set on FARAGE (GCB DLBCL) (FARAGE, Experiment 1, ref Report CC-90010-Pharm-1018) it was 710 nM; in the data set on FARAGE (GCB DLBCL) (Farage, Experiment 2, ref Report CC-90010-Pharm-1018) it was 3350 nM; with P-gp, 2000 nM; with WSU-DLCL2 (DOX-R), about 360 nM. The IC50 in [5] was 80 nM; with OCI-LY-19 (GCB DLBCL), 220 nM; with U-2932 (ABC DLBCL) (U-2932, Experiment 1, ref Report CC-90010-Pharm-1018), 150 nM; in the data set with U-2932 (ABC DLBCL) (U-2932, Table 2, ref Report CC-90010-Pharm-1018), 167 nM; in data set [7] (read-out: overall mean IC50, colony formation), 620 ± 130 nM. Also, the “dose excreted intact in bile or urine, average” value in data set [2] is reported as 0.9 % of the dose. In addition, the “mutagenicity (Ames)” value in [3] is recorded as “non-mutagenic”. Besides, the “increase in mRNA over vehicle control” value in [4] was under 2 fold. Also, the oral bioavailability result in data set [6] was “high oral bioavailability”. Also, the t1/2 in data set [6] is on record as ~ 60 h. For the same compound, the “activity range of IC50 values” in data set [7] is recorded as 18 fold. In [8], the time-dependent inhibition entry is recorded as “little to no time-dependent”.
